This passage reports IC50 cell viability results from the supplement of paper PMC12137928.

Counter-ions that a name gives are not always drawn. Bounds are passed on as bounds.

For this assay, the system named is HCT116. Particulars: 72 h. In a few lines:
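HCT116 cells went into 1536-well plates at 250 per well. CellTiter-Glo luminescence was expressed relative to vehicle (0%) and positive control (-100%) and then pattern-corrected. Both IC50 and maximal efficacy were taken from four-parameter Hill fits.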

Consider `CC(C)NCC(O)c1ccc(NS(C)(=O)=O)cc1` (stereo not drawn) [Sotalol], for which the IC50 cell viability was more than 45.8 µM (ICRF193 0 nM) and more than 45.8 µM (ICRF193 200 nM).

Take `CC[C@H](C)C[C@H](C)CCCCCCCCC(=O)N[C@H]1C[C@@H](O)[C@@H](NCCN)NC(=O)[C@@H]2[C@@H](O)CCN2C(=O)[C@H]([C@H](O)CCN)NC(=O)[C@H]([C@H](O)[C@@H](O)c2ccc(O)cc2)NC(=O)[C@@H]2C[C@@H](O)CN2C(=O)[C@H]([C@@H](C)O)NC1=O` [Caspofungin Acetate]: the IC50 cell viability (ICRF193 0 nM) was more than 45.8 µM and the IC50 cell viability (ICRF193 200 nM) is more than 45.8 µM.

Regarding `CCCC(=O)O[C@]1(C(=O)CO)CC[C@H]2[C@@H]3CCC4=CC(=O)CC[C@]4(C)[C@H]3[C@@H](O)C[C@@]21C` [Hydrocortisone 17-butyrate], the IC50 cell viability is more than 45.8 µM (ICRF193 0 nM) and more than 45.8 µM (ICRF193 200 nM).

Take `CC(C)(C)NCC(O)COc1ccccc1C#N` (stereo not drawn) [BUNITROLOL]: the IC50 cell viability (ICRF193 0 nM) is more than 45.8 µM and the IC50 cell viability (ICRF193 200 nM) was more than 45.8 µM.

On to `COC1=C(C(=O)O)N2C(=O)[C@@H](NC(=O)[C@H](N)C3=CCC=CC3)[C@H]2SC1` [Cefroxadine], for which the IC50 cell viability is, setting by setting: (ICRF193 0 nM) more than 45.8 µM; (ICRF193 200 nM) more than 45.8 µM.

Regarding `CC[N+](C)(CC)CCOC(=O)C1c2ccccc2Oc2ccccc21` [Methantheline bromide], the IC50 cell viability is, setting by setting: (ICRF193 0 nM) more than 45.8 µM; (ICRF193 200 nM) more than 45.8 µM.

`CC1=C(/C=C/C(C)=C/C=C/C(C)=C/C=C/C=C(C)/C=C/C=C(C)/C=C/C2=C(C)C[C@@H](O)CC2(C)C)C(C)(C)C[C@H](O)C1` [Zeaxanthin] yielded an IC50 cell viability (ICRF193 0 nM) of more than 45.8 µM and an IC50 cell viability (ICRF193 200 nM) of more than 45.8 µM.

Consider `C[C@@H]1CCN(C(=O)CC#N)C[C@@H]1N(C)c1ncnc2[nH]ccc12` [Tofacitinib], for which the IC50 cell viability runs as follows: (ICRF193 0 nM) more than 45.8 µM; (ICRF193 200 nM) more than 45.8 µM.

Consider `C[C@]12C=CC(=O)C=C1CC[C@@H]1[C@@H]2[C@@H](O)C[C@@]2(C)[C@H]1CC[C@]2(O)C(=O)COC(=O)CCC(=O)O` [PREDNISOLONE HEMISUCCINATE], for which the IC50 cell viability was more than 45.8 µM (ICRF193 0 nM) and more than 45.8 µM (ICRF193 200 nM).

`CC(CN(C)C)CN1c2ccccc2CCc2ccccc21` (stereo not drawn) [Trimipramine maleate] showed an IC50 cell viability (ICRF193 0 nM) of more than 45.8 µM and an IC50 cell viability (ICRF193 200 nM) of more than 45.8 µM.

For `CCCCCCOC(=O)NC(=N)c1ccc(NCc2nc3cc(C(=O)N(CCC(=O)OCC)c4ccccn4)ccc3n2C)cc1` [BIBR-1048], the IC50 cell viability reads like this: (ICRF193 0 nM) more than 45.8 µM; (ICRF193 200 nM) more than 45.8 µM.

For the compound `COc1ccc(CC(C)(C)NC[C@H](O)c2cc(O)cc3c2OCC(=O)N3)cc1` [Olodaterol], the IC50 cell viability runs as follows: (ICRF193 0 nM) more than 45.8 µM; (ICRF193 200 nM) more than 45.8 µM.

For the compound `C/C=C1\[C@H]2C=C(C)C[C@]1(N)c1ccc(=O)[nH]c1C2` [Huperzine A], the IC50 cell viability (ICRF193 0 nM) was more than 45.8 µM and the IC50 cell viability (ICRF193 200 nM) is more than 45.8 µM.

For `CC(=O)/N=c1/sc(S(N)(=O)=O)nn1C` [Methazolamide], the IC50 cell viability (ICRF193 0 nM) is more than 45.8 µM and the IC50 cell viability (ICRF193 200 nM) is more than 45.8 µM.

As to `CCOC(=O)[C@H](C)C[C@@H](Cc1ccc(-c2ccccc2)cc1)NC(=O)CCC(=O)O` [AHU-377], the IC50 cell viability was more than 45.8 µM (ICRF193 0 nM) and more than 45.8 µM (ICRF193 200 nM).

On to `CCCCCN(C)CCC(O)(P(=O)(O)O)P(=O)(O)O` [Ibandronate sodium hydrate], for which the IC50 cell viability was more than 45.8 µM (ICRF193 0 nM) and more than 45.8 µM (ICRF193 200 nM).

`CCCCc1cc2c(=O)c(C(=O)OC)c[nH]c2cc1OCc1ccccc1` [Nequinate] showed an IC50 cell viability (ICRF193 0 nM) of more than 45.8 µM and an IC50 cell viability (ICRF193 200 nM) of more than 45.8 µM.

As to `CCCCCCCCCCCCCC(=O)OCC(COP(=O)([O-])OCC[N+](C)(C)C)OC(=O)CCCCCCCCCCCCC` (racemic) [1,2-Ditetradecanoyl-rac-glycerol-3-phosphocholine], the IC50 cell viability by setting is: (ICRF193 0 nM) more than 45.8 µM; (ICRF193 200 nM) more than 45.8 µM.

For the compound `C[C@]12C=CC(=O)C=C1CC[C@@H]1[C@@H]2[C@@H](O)C[C@@]2(C)[C@H]1CC[C@]2(O)C(=O)COC(=O)c1cccc(S(=O)(=O)O)c1` [Predocol], the IC50 cell viability by setting is: (ICRF193 0 nM) more than 45.8 µM; (ICRF193 200 nM) more than 45.8 µM.
